Laboratory results as given in US6358885B1, “Substituted phenylheterocyclic herbicides” (Mississippi State University, priority 1992, dated 2002).

Experiments:
Experiment in all cases: Test B preemergence/postemergence greenhouse plant response rating 0 to 10
Conditions in all cases: 0 to 10 scale
[1] = test system: barnyardgrass; assay type: in vivo, Echinochloa crus-galli
In short: (§1)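 Both application timings were run together: seeds got compound preemergence, and established seedlings (two to eighteen cm) got it postemergence. Non-phytotoxic solvent carried the chemical. Ratings are visual, versus controls, at twelve to sixteen days.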

[2] = test system: morningglory; assay type: in vivo, Ipomoea hederacea
In short: as §1

[3] = test system: rape; assay type: in vivo, Brassica napus
In short: as §1

[4] = test system: sorghum; assay type: in vivo, Sorghum bicolor
In short: as §1

[5] = test system: wild buckwheat; assay type: in vivo, Polygonum convolvulus
In short: as §1

[6] = test system: giant foxtail; assay type: in vivo, Setaria faberii
In short: as §1

[7] = test system: cheatgrass; assay type: in vivo, Bromus secalinus
In short: as §1

[8] = test system: crabgrass; assay type: in vivo, Digitaria spp.
In short: as §1

[9] = test system: wild oat; assay type: in vivo, Avena fatua
In short: as §1

[10] = test system: wheat; assay type: in vivo, Triticum aestivum
In short: as §1

[11] = test system: cotton; assay type: in vivo, Gossypium hirsutum
In short: as §1

[12] = test system: cocklebur; assay type: in vivo, Xanthium pensylvanicum
In short: as §1

[13] = test system: soybean; assay type: in vivo, Glycine max
In short: as §1

[14] = test system: blackgrass; assay type: in vivo, Alopecurus myosuroides
In short: as §1

[15] = test system: sugar beet; assay type: in vivo, Beta vulgaris
In short: as §1

[16] = test system: purple nutsedge; assay type: in vivo, Cyperus rotundus
In short: as §1

[17] = test system: velvetleaf; assay type: in vivo, Abutilon theophrasti
In short: as §1

[18] = test system: chickweed; assay type: in vivo, Stellaria media
In short: as §1

[19] = test system: corn; assay type: in vivo, Zea mays
In short: as §1

[20] = test system: lambsquarters; assay type: in vivo, Chenopodium album
In short: as §1

[21] = test system: barley; assay type: in vivo, Hordeum vulgare
In short: as §1

[22] = test system: rice; assay type: in vivo, Oryza sativa
In short: as §1

[23] = test system: bedstraw; assay type: in vivo, Galium aparine
In short: as §1

CC(C#N)Oc1cc(-c2nn3c(c2Cl)CCCC3)c(F)cc1Cl (centres unmarked) [Compound 60]
Plant response rating, Barnyardgrass ([1]; POSTEMERGENCE, Rate 10 g/ha): 3 | Plant response rating, Barnyardgrass ([1]; POSTEMERGENCE, Rate 50 g/ha): 4 | Plant response rating, Barnyardgrass ([1]; PREEMERGENCE, Rate 10 g/ha): 0 | Plant response rating, Barnyardgrass ([1]; PREEMERGENCE, Rate 50 g/ha): 0 | Plant response rating, Morningglory ([2]; POSTEMERGENCE, Rate 10 g/ha): 7 | Plant response rating, Morningglory ([2]; POSTEMERGENCE, Rate 50 g/ha): 7 | Plant response rating, Morningglory ([2]; PREEMERGENCE, Rate 50 g/ha): 3 | Plant response rating, Rape ([3]; POSTEMERGENCE, Rate 10 g/ha): 6 | Plant response rating, Rape ([3]; POSTEMERGENCE, Rate 50 g/ha): 10 | Plant response rating, Rape ([3]; PREEMERGENCE, Rate 50 g/ha): 6 | Plant response rating, Sorghum ([4]; POSTEMERGENCE, Rate 10 g/ha): 3 | Plant response rating, Sorghum ([4]; POSTEMERGENCE, Rate 50 g/ha): 3 | Plant response rating, Sorghum ([4]; PREEMERGENCE, Rate 50 g/ha): 2 | Plant response rating, Wild buckwheat ([5]; POSTEMERGENCE, Rate 10 g/ha): 9 | Plant response rating, Wild buckwheat ([5]; POSTEMERGENCE, Rate 50 g/ha): 10 | Plant response rating, Wild buckwheat ([5]; PREEMERGENCE, Rate 50 g/ha): 7 | Plant response rating, Giant foxtail ([6]; POSTEMERGENCE, Rate 10 g/ha): 3 | Plant response rating, Giant foxtail ([6]; POSTEMERGENCE, Rate 50 g/ha): 4 | Plant response rating, Giant foxtail ([6]; PREEMERGENCE, Rate 10 g/ha): 0 | Plant response rating, Giant foxtail ([6]; PREEMERGENCE, Rate 50 g/ha): 2 | Plant response rating, Cheatgrass ([7]; POSTEMERGENCE, Rate 10 g/ha): 3 | Plant response rating, Cheatgrass ([7]; POSTEMERGENCE, Rate 50 g/ha): 3 | Plant response rating, Cheatgrass ([7]; PREEMERGENCE, Rate 10 g/ha): 0 | Plant response rating, Cheatgrass ([7]; PREEMERGENCE, Rate 50 g/ha): 2 | Plant response rating, Crabgrass ([8]; POSTEMERGENCE, Rate 10 g/ha): 2 | Plant response rating, Crabgrass ([8]; POSTEMERGENCE, Rate 50 g/ha): 2 | Plant response rating, Crabgrass ([8]; PREEMERGENCE, Rate 10 g/ha): 0 | Plant response rating, Crabgrass ([8]; PREEMERGENCE, Rate 50 g/ha): 0 | Plant response rating, Wild oat ([9]; POSTEMERGENCE, Rate 10 g/ha): 2 | Plant response rating, Wild oat ([9]; POSTEMERGENCE, Rate 50 g/ha): 4 | Plant response rating, Wild oat ([9]; PREEMERGENCE, Rate 50 g/ha): 3 | Plant response rating, Wheat ([10]; POSTEMERGENCE, Rate 10 g/ha): 3 | Plant response rating, Wheat ([10]; POSTEMERGENCE, Rate 50 g/ha): 4 | Plant response rating, Wheat ([10]; PREEMERGENCE, Rate 50 g/ha): 2 | Plant response rating, Cotton ([11]; POSTEMERGENCE, Rate 10 g/ha): 9 | Plant response rating, Cotton ([11]; POSTEMERGENCE, Rate 50 g/ha): 10 | Plant response rating, Cotton ([11]; PREEMERGENCE, Rate 10 g/ha): 0 | Plant response rating, Cotton ([11]; PREEMERGENCE, Rate 50 g/ha): 5 | Plant response rating, Cocklebur ([12]; POSTEMERGENCE, Rate 10 g/ha): 6 | Plant response rating, Cocklebur ([12]; POSTEMERGENCE, Rate 50 g/ha): 8 | Plant response rating, Cocklebur ([12]; PREEMERGENCE, Rate 10 g/ha): 0 | Plant response rating, Cocklebur ([12]; PREEMERGENCE, Rate 50 g/ha): 0 | Plant response rating, Soybean ([13]; POSTEMERGENCE, Rate 10 g/ha): 6 | Plant response rating, Soybean ([13]; POSTEMERGENCE, Rate 50 g/ha): 4 | Plant response rating, Soybean ([13]; PREEMERGENCE, Rate 50 g/ha): 0 | Plant response rating, Blackgrass ([14]; POSTEMERGENCE, Rate 10 g/ha): 3 | Plant response rating, Blackgrass ([14]; POSTEMERGENCE, Rate 50 g/ha): 3 | Plant response rating, Blackgrass ([14]; PREEMERGENCE, Rate 10 g/ha): 0 | Plant response rating, Blackgrass ([14]; PREEMERGENCE, Rate 50 g/ha): 0 | Plant response rating, Sugar beet ([15]; POSTEMERGENCE, Rate 10 g/ha): 10 | Plant response rating, Sugar beet ([15]; POSTEMERGENCE, Rate 50 g/ha): 10 | Plant response rating, Sugar beet ([15]; PREEMERGENCE, Rate 50 g/ha): 9 | Plant response rating, Nutsedge ([16]; POSTEMERGENCE, Rate 10 g/ha): 1 | Plant response rating, Nutsedge ([16]; POSTEMERGENCE, Rate 50 g/ha): 2 | Plant response rating, Nutsedge ([16]; PREEMERGENCE, Rate 50 g/ha): 0 | Plant response rating, Velvetleaf ([17]; POSTEMERGENCE, Rate 10 g/ha): 7 | Plant response rating, Velvetleaf ([17]; POSTEMERGENCE, Rate 50 g/ha): 8 | Plant response rating, Velvetleaf ([17]; PREEMERGENCE, Rate 50 g/ha): 6 | Plant response rating, Chickweed ([18]; POSTEMERGENCE, Rate 10 g/ha): 3 | Plant response rating, Chickweed ([18]; POSTEMERGENCE, Rate 50 g/ha): 7 | Plant response rating, Chickweed ([18]; PREEMERGENCE, Rate 50 g/ha): 4 | Plant response rating, Corn ([19]; POSTEMERGENCE, Rate 10 g/ha): 3 | Plant response rating, Corn ([19]; POSTEMERGENCE, Rate 50 g/ha): 3 | Plant response rating, Corn ([19]; PREEMERGENCE, Rate 50 g/ha): 0 | Plant response rating, Lambsquarter ([20]; POSTEMERGENCE, Rate 10 g/ha): 10 | Plant response rating, Lambsquarter ([20]; POSTEMERGENCE, Rate 50 g/ha): 10 | Plant response rating, Lambsquarter ([20]; PREEMERGENCE, Rate 50 g/ha): 9 | Plant response rating, Barley ([21]; POSTEMERGENCE, Rate 10 g/ha): 3 | Plant response rating, Barley ([21]; POSTEMERGENCE, Rate 50 g/ha): 4 | Plant response rating, Barley ([21]; PREEMERGENCE, Rate 10 g/ha): 0 | Plant response rating, Barley ([21]; PREEMERGENCE, Rate 50 g/ha): 0 | Plant response rating, Rice ([22]; POSTEMERGENCE, Rate 10 g/ha): 3 | Plant response rating, Rice ([22]; POSTEMERGENCE, Rate 50 g/ha): 4 | Plant response rating, Rice ([22]; PREEMERGENCE, Rate 50 g/ha): 1 | Plant response rating, Bedstraw ([23]; POSTEMERGENCE, Rate 10 g/ha): 7 | Plant response rating, Bedstraw ([23]; POSTEMERGENCE, Rate 50 g/ha): 9 | Plant response rating, Bedstraw ([23]; PREEMERGENCE, Rate 50 g/ha): 6
